From ChEMBL document CHEMBL1799952, “Synthesis of novel heme-interacting acridone derivatives to prevent free heme-mediated protein oxidation and degradation” (Bioorg Med Chem Lett, 2011)
Calls of active or inactive are those of the source. No cut-off for these calls is given here.

Experiments:
[1] = system: Heme; test: Binding affinity to heme assessed as equilibrium binding constant by UV-visible spectrophotometry
[2] = system: Heme; test: Inhibition of heme-mediated bovine serum albumin oxidation assessed as protein carbonyl formation after 1 hr in presence of H2O2 at pH 7.4
[3] = system: Heme; test: Inhibition of heme-mediated bovine serum albumin degradation at 100 uM after 1 hr by gel electrophoresis in presence of H2O2 at pH 7.4

Structure (SMILES)	Ka [1]	IC50 [2]	inhibition [3]
COc1ccc2[nH]c3ccccc3c(=O)c2c1	2.7 ×10⁴ /M	44 µM	
O=c1c2ccccc2[nH]c2ccccc12 [ACRIDONE]	2.4 ×10⁴ /M	55 µM	
O=c1c2ccccc2[nH]c2cc(Cl)ccc12	4.6 ×10⁴ /M	36 µM	Active
O=c1c2ccccc2[nH]c2cc([N+](=O)[O-])ccc12	4.3 ×10⁴ /M	41 µM	Active
O=C(O)c1cccc2c(=O)c3ccccc3[nH]c12	3.8 ×10⁴ /M	43 µM	
COc1cc2c(c(O)c1OC)c(=O)c1ccccc1n2C [ARBORININE]	3.9 ×10⁴ /M	42 µM	Active
